Assay results reported in US3963707A, “Novel N-nitroso compounds, compositions containing such compounds, processes for their preparation and methods of treatment therewith, and novel intermediates” (Aktiebolaget Leo, priority 1973, dated 1976).

Test system: Hepatoma AH 130
Test: in vivo
Design: species or system SPF Wistar rats
Conditions: additional compounds, result in words
Text: The high activity against tumours is further illustrated in these experiments by comparisons with known antitumour agents used in the therapy. The therapeutic indexes (T.I.), i.e. the ratios LD50/ED50, are in all comparisons much more favourable with the compounds of the present invention.
LD50 is the dose that caused a 50 percent lethality of the animals, ED50 is the dose that caused a 50 percent reduction of tumour size.
The experimental design and the interpretation of the results have been in accordance with the standards set by the CCNSC (Cancer Chemotherapy Reports, January 1959 and December 1962), and by the DR&D (Cancer Chemotherapy Reports, September 1972, Vol. 3, No. 2).
The way of administration is by the intraperitoneal route (i.p.) in each case.
Experimental animals: SPF Wistar rats.
Tumour implant: 5 × 10^6 tumour cells i.p.
Therapy: One injection i.p. on the day following implantation.
Termination: The animals are killed on the 8th day.
Evaluation: Weights of tumours of test animals compared with those of control animals.

Q: For CC(C)CCC[C@@H](C)[C@H]1CC[C@H]2[C@@H]3CC=C4C[C@@H](OC(=O)N(C)C(=O)N(CCCl)N=O)CC[C@]4(C)[C@H]3CC[C@]12C [cholesterol-3β-/N^2-methyl-N^4-(2-chloroethyl)-N^4-nitroso allophanate/], which anti-tumor activity is on record?
A: exhibit anti-tumor activity

Q: With C[C@@]12C=CC[C@H]1[C@@H]1CCc3cc(OC(=O)N(CCCl)N=O)ccc3[C@H]1CC2 [estra-1,3,5(10),16-tetraen-3-ol,3-N-(2-chloroethyl)-N-nitroso carbamate] as the compound, how does the anti-tumor activity read?
A: exhibit anti-tumor activity

Q: For CC(C)CCC[C@@H](C)[C@H]1CC[C@H]2[C@@H]3CC=C4C[C@@H](OC(=O)N(CCF)N=O)CC[C@]4(C)[C@H]3CC[C@]12C [cholesterol-3β-N-(2-fluoroethyl)-N-nitroso carbamate], which anti-tumor activity is on record?
A: exhibit anti-tumor activity

Q: Which anti-tumor activity does the source give for CN(C(=O)O[C@H]1CC[C@@]2(C)C(=CC[C@H]3[C@@H]4CC[C@H](OP(=O)(O)O)[C@@]4(C)CC[C@@H]32)C1)C(=O)N(CCCl)N=O [androstenediol-3β-/N^2-methyl-N^4-(2-chloroethyl)-N^4 nitroso allophanate/-17β-dihydrogen phosphate] here?
A: exhibit anti-tumor activity

Q: For CC(=O)O[C@H]1CC[C@H]2[C@@H]3CCc4cc(OC(=O)N(C)C(=O)N(CCCl)N=O)ccc4[C@H]3CC[C@]12C [estradiol-17β-acetate-3-/N^2-methyl-N^ 4-(2-chloroethyl)-N^4-nitroso allophanate/], which anti-tumor activity is on record?
A: exhibit anti-tumor activity

Q: Which anti-tumor activity does the source give for C#C[C@]1(OC(C)=O)CC[C@H]2[C@@H]3CCC4=C[C@@H](OC(=O)N(C)C(=O)N(CCCl)N=O)CC[C@@H]4[C@H]3CC[C@@]21C [ethynodiol-17β-acetate-3β-/N^2-methyl-N^4-(2-chloroethyl)-N^4-nitroso allophanate/] here?
A: exhibit anti-tumor activity

Q: With CCCCC(=O)O[C@H]1CC[C@H]2[C@@H]3CCc4cc(OC(=O)N(CCCl)N=O)ccc4[C@H]3CC[C@]12C [estradiol-17β-valerate-3-N-(2-chloroethyl)-N-nitroso carbamate] as the compound, how does the anti-tumor activity read?
A: exhibit anti-tumor activity

Q: Which anti-tumor activity does the source give for C#C[C@]1(OC(C)=O)CC[C@H]2[C@@H]3CCC4=C[C@@H](OC(=O)N(C(=O)N(CCCl)N=O)c5ccccc5)CC[C@@H]4[C@H]3CC[C@@]21C [ethynodiol-17β-acetate-3β-/N^2-phenyl-N^4-(2-chloroethyl)-N-nitroso allophanate/] here?
A: exhibit anti-tumor activity

Q: COc1ccc2c(c1)CC[C@@H]1[C@@H]2CC[C@]2(C)[C@@H](OC(=O)NC(=O)N(CCCl)N=O)CC[C@@H]12 [estradiol-3-methylether-17β-/N^4-(2-chloroethyl)-N^4-nitroso allophanate/] was tested. Which anti-tumor activity did it give?
A: exhibit anti-tumor activity

Q: For C[C@H]1C[C@H]2[C@@H]3CC[C@H](OC(=O)N(CCCl)N=O)[C@@]3(C)CC[C@@H]2[C@@]2(C)CCC(=O)C=C12 [6α-methyltestosterone-17β-N-(2-chloroethyl)-N-nitroso carbamate], which anti-tumor activity is on record?
A: exhibit anti-tumor activity

Q: How did the anti-tumor activity turn out when CC(=O)O[C@H]1CC[C@H]2[C@@H]3CCc4cc(OC(=O)N(CCF)N=O)ccc4[C@H]3CC[C@]12C [estradiol-17β-acetate-3-N-(2-fluoroethyl)-N-nitroso carbamate] was run?
A: exhibit anti-tumor activity

Q: With CC(=O)[C@H]1CC[C@H]2[C@@H]3CC=C4C[C@@H](OC(=O)N(CCCl)C(=O)N(CCCl)N=O)CC[C@]4(C)[C@H]3CC[C@]12C [pregnenolone-3β-/N^2,N^4-bis (2-chloroethyl)-N^4-nitroso allophanate/] as the compound, how does the anti-tumor activity read?
A: exhibit anti-tumor activity

Q: Which anti-tumor activity does the source give for C#C[C@]1(OC(=O)N(CCCl)N=O)CC[C@H]2[C@@H]3CCC4=C[C@@H](OP(=O)(O)OCC)CC[C@@H]4[C@H]3CC[C@@]21C [ethynodiol-17β-N-(2-chloroethyl)-N-nitroso carbamate-3β-ethyl hydrogen phosphate] here?
A: exhibit anti-tumor activity

Q: How did the anti-tumor activity turn out when C[C@]12CC[C@H]3[C@@H](CC=C4C[C@@H](OC(=O)N(CCCl)N=O)CC[C@@]43C)[C@@H]1CC[C@@H]2OP(=O)(O)O [androstenediol-3β-/N-(2-chloroethyl)-N-nitroso carbamate/-17β-dihydrogen phosphate] was run?
A: exhibit anti-tumor activity

Q: Which anti-tumor activity does the source give for CC(C)CCC[C@@H](C)[C@H]1CC[C@H]2[C@@H]3CC=C4C[C@@H](OC(=O)NC(=O)N(CCCl)N=O)CC[C@]4(C)[C@H]3CC[C@]12C [cholesterol-3β-/N^4-(2-chloroethyl)-N^4-nitroso allophanate/] here?
A: exhibit anti-tumor activity

Q: Which anti-tumor activity does the source give for C#C[C@]1(OC(=O)N(CCCl)N=O)CC[C@H]2[C@@H]3CCC4=C[C@@H](OS(=O)(=O)O)CC[C@@H]4[C@H]3CC[C@@]21C [ethynodiol-17β-N-(2-chloroethyl)-N-nitroso carbamate-3β-sodium sulphate] here?
A: exhibit anti-tumor activity

Q: COc1ccc2c(c1)CC[C@@H]1[C@@H]2CC[C@]2(C)[C@@H](OC(=O)N(C(=O)N(CCCl)N=O)c3ccccc3)CC[C@@H]12 [estradiol-3-methylether-17β-/N^2-phenyl-N^4-(2-chloroethyl)-N^4-nitroso allophanate/] was tested. Which anti-tumor activity did it give?
A: exhibit anti-tumor activity

Q: CC1=C2CC[C@H]3[C@@H]4CC[C@H](OC(=O)N(CCCl)N=O)[C@@]4(C)CC[C@@H]3[C@@]2(C)CCC1=O [4-methyl-testosterone-17β-N-(2-chloroethyl)-N-nitroso carbamate] was tested. Which anti-tumor activity did it give?
A: exhibit anti-tumor activity

Q: How did the anti-tumor activity turn out when C#C[C@]1(OC(=O)N(CCCl)N=O)CC[C@H]2[C@@H]3CCC4=CC(=O)CC[C@@H]4[C@H]3CC[C@@]21CC [17α-ethynyl-18-methyl-19-nortestosterone-17β-N-(2-chloroethyl)-N-nitroso carbamate] was run?
A: exhibit anti-tumor activity

Q: C[C@]12CC[C@H]3[C@@H](CC=C4C[C@@H](OC(=O)N(CCCl)N=O)CC[C@@]43C)[C@@H]1CC[C@@H]2OP(=O)(O)Oc1ccccc1 [androstenediol-3β-/N-(2-chloroethyl)-N-nitroso carbamate/-17β-phenyl hydrogen phosphate] was tested. Which anti-tumor activity did it give?
A: exhibit anti-tumor activity

Q: How did the anti-tumor activity turn out when C[C@]12C=CC(=O)C=C1CC[C@@H]1[C@@H]2[C@@H](O)C[C@@]2(C)[C@H]1CC[C@]2(O)C(=O)COC(=O)N(C(=O)N(CCCl)N=O)C1CCCCC1 [prednisolone-21-/N^2-cyclohexyl-N^4-(2-chloroethyl)-N-nitroso allophanate/] was run?
A: exhibit anti-tumor activity

Q: Which anti-tumor activity does the source give for CC(C)[C@@H](C)/C=C/[C@@H](C)[C@H]1CC[C@H]2C3=CC=C4C[C@@H](OC(=O)N(CCCl)N=O)CC[C@]4(C)[C@H]3CC[C@]12C [ergosterol-3β-N-(2-chloroethyl)-N-nitroso carbamate] here?
A: exhibit anti-tumor activity

Q: C[C@]12CCC(=O)C=C1CC[C@@H]1[C@@H]2CC[C@@]2(C)[C@H]1CC[C@]2(C)OC(=O)N(CCCl)N=O [17α-methyltestosterone-17β-N-(2-chloroethyl)-N-nitroso carbamate] was tested. Which anti-tumor activity did it give?
A: exhibit anti-tumor activity

Q: For C[C@]12CC[C@H]3[C@@H](CC=C4C[C@@H](OC(=O)N(CCCl)N=O)CC[C@@]43C)[C@@H]1CC[C@@H]2OC(=O)CCC(=O)O [androstenediol-17β-hemisuccinate-3β-N-(2-chloroethyl)-N-nitroso carbamate], which anti-tumor activity is on record?
A: exhibit anti-tumor activity

Q: For CC(=O)[C@H]1CC[C@H]2[C@@H]3CC=C4C[C@@H](OC(=O)N(C)C(=O)N(CCCl)N=O)CC[C@]4(C)[C@H]3CC[C@]12C [pregnenolone-3β-/N^2-methyl-N^4-(2-chloroethyl)-N^4-nitroso allophanate/], which anti-tumor activity is on record?
A: exhibit anti-tumor activity

Q: With CC(=O)OCC(=O)[C@H]1CC[C@H]2[C@@H]3CCC4=CC(=O)CC[C@]4(C)[C@H]3[C@@H](OC(=O)N(CCCl)N=O)C[C@]12C [corticosterone-21-acetate-11β-N-(2-chloroethyl)-N-nitroso carbamate] as the compound, how does the anti-tumor activity read?
A: exhibit anti-tumor activity

Q: Which anti-tumor activity does the source give for CC(C)CCC[C@@H](C)[C@H]1CC[C@H]2[C@@H]3CC=C4C[C@@H](OC(=O)N(C(=O)N(CCCl)N=O)c5ccccc5)CC[C@]4(C)[C@H]3CC[C@]12C [cholesterol-3β-/N^2-phenyl-N^4-(2-chloroethyl)-N^4-nitroso allophanate/] here?
A: exhibit anti-tumor activity

Q: Which anti-tumor activity does the source give for C[C@]12CCC(=O)C=C1CC[C@H]1[C@@H]3CC[C@](C)(OC(=O)N(CCCl)N=O)[C@@]3(C)C[C@H](O)[C@@]12F [9α-fluoro-11β-hydroxy-17α-methyltestosterone-17β-N-(2-chloroethyl)-N-nitroso carbamate] here?
A: exhibit anti-tumor activity

Q: With CC(=O)[C@@]1(OC(=O)N(CCCl)N=O)CC[C@H]2[C@@H]3C[C@H](C)C4=CC(=O)CC[C@]4(C)[C@H]3CC[C@@]21C [6α-methyl-17α-hydroxy-progesterone,17α-N-(2-chloroethyl)-N-nitroso carbamate] as the compound, how does the anti-tumor activity read?
A: exhibit anti-tumor activity

Q: With C#C[C@]1(OC(C)=O)CC[C@H]2[C@@H]3CCC4=C[C@@H](OC(=O)N(C(=O)N(CCCl)N=O)C5CCC(C)CC5)CC[C@@H]4[C@H]3CC[C@@]21C (stereo partly drawn) [ethynodiol-17β-acetate-3β-/N^2-(4-methylcyclohexyl)-N^4-(2-chloroethyl)-N^4-nitroso allophanate/] as the compound, how does the anti-tumor activity read?
A: exhibit anti-tumor activity

Q: Which anti-tumor activity does the source give for CC1CC2(C)C(CCC3C2CCC2(C)C(OC(=O)N(CCCl)N=O)CCC32)CC1=O (stereo not drawn) [2α-methyl-dihydrotestosterone-17β-N-(2-chloroethyl)-N-nitroso carbamate] here?
A: exhibit anti-tumor activity

Q: C[C@]12C=CC(=O)C=C1CC[C@@H]1[C@@H]2[C@@H](OC(=O)N(CCCl)N=O)C[C@@]2(C)[C@H]1CC[C@]2(O)C(=O)CO [prednisolone-11β-N-(2-chloroethyl)-N-nitroso carbamate] was tested. Which anti-tumor activity did it give?
A: exhibit anti-tumor activity
